Assay results published in publication PMC10147690, “Human TRPV1 structure and inhibition by the analgesic SB-366791” (Nature Communications, 2023).
“And” between values parts separate entries of the source, which are not always exact repeats. Equal entries are not always repeated. Where two headings read alike, the source gives them in different places.

Experiments:
hTRPV1 Y511A [1] = molecular target: T1, hTRPV1 Y511A (Homo sapiens, UniProt Q8NER1, Y511A); assay: whole-cell patch-clamp, capsaicin on hTRPV1 Y511A; format: cell-based; conditions: not shown
T1 construct: expressed in transfected cells; host or cells: HEK293T ΔPIEZO1 cells, pIRES-EGFP plasmid

hTRPV1 [2] = molecular target: T2, hTRPV1 (Homo sapiens, UniProt Q8NER1); assay: whole-cell patch-clamp at -40 mV, SB-366791 inhibition of capsaicin-activated hTRPV1 current and recovery; format: cell-based; set-up: we used the same wild-type full-length construct to determine the hTRPV1 structure; expressed in transfected cells; host or cells: HEK293T ΔPIEZO1 cells, pIRES-EGFP plasmid; I (Cap), hTRPV1 peak current amplitude / I (SB), hTRPV1 peak current amplitude: unit not given here
rat TRPV1 = test system: rat TRPV1; set-up: method as in PMID 27638213; conditions: cited from earlier work
squirrel TRPV1 = test system: squirrel TRPV1; set-up: method as in PMID 27638213; conditions: cited from earlier work
mouse TRPV1 = test system: mouse TRPV1; set-up: method as in PMID 27638213; conditions: cited from earlier work
hTRPV1 R557A [3] = molecular target: T3, hTRPV1 R557A (Homo sapiens, UniProt Q8NER1, R557A); assay: whole-cell patch-clamp, capsaicin on hTRPV1 R557A; format: cell-based; conditions: 10 μM capsaicin
T3 construct: expressed in transfected cells; host or cells: HEK293 cells

hTRPV1 E570A [4] = molecular target: T4, hTRPV1 E570A (Homo sapiens, UniProt Q8NER1, E570A); assay: whole-cell patch-clamp, capsaicin on hTRPV1 E570A; format: cell-based; conditions: 10 μM capsaicin
T4 construct: expressed in transfected cells; host or cells: HEK293 cells

rat TRPV1 Y511A = conditions: cited from earlier work
[5] = test system: glutamatergic transmission in a subset of neurons; conditions: pre-synaptic TRPV1-dependent mechanism following peripheral inflammation; cited from earlier work
hTRPV1 R557A [6] = molecular target: T3, hTRPV1 R557A; assay: whole-cell patch-clamp, SB-366791 on pH-induced current, R557A; format: cell-based; conditions: pH 5
[7] = test system: panel of 47 different targets, including G-protein-coupled receptors and voltage-gated calcium-channels; conditions: cited from earlier work
hTRPV1 E570A [8] = molecular target: T4, hTRPV1 E570A; assay: whole-cell patch-clamp, SB-366791 on pH-induced current, E570A; format: cell-based; conditions: pH 5
bone cancer pain = conditions: cited from earlier work
hTRPV1 [9] = molecular target: T2, hTRPV1; conditions: no apparent change in the maximal response; cited from earlier work
[10] = test system: opiate-mediated behaviors; set-up: method as in PMID 27730727; conditions: rat studies; cited from earlier work
hTRPV1 L547R = molecular target: T5, hTRPV1 L547R (Homo sapiens, UniProt Q8NER1, L547R); assay: whole-cell patch-clamp, SB-366791 inhibition of pH 5-induced current, L547R; format: cell-based
T5 construct: we used the same wild-type full-length construct to determine the hTRPV1 structure; expressed in transfected cells; host or cells: HEK293T ΔPIEZO1 cells, pIRES-EGFP plasmid

hTRPV1 L515A = molecular target: T6, hTRPV1 L515A (Homo sapiens, UniProt Q8NER1, L515A); assay: whole-cell patch-clamp, SB-366791 inhibition of pH 5-induced current, L515A; format: cell-based; conditions: for I / Imax: +80 mV, individual cells
T6 construct: we used the same wild-type full-length construct to determine the hTRPV1 structure; expressed in transfected cells; host or cells: HEK293T ΔPIEZO1 cells, pIRES-EGFP plasmid

hTRPV1 [11] = molecular target: T2, hTRPV1; assay: whole-cell patch-clamp, SB-366791 inhibition of pH 5-induced current, wild-type hTRPV1; format: cell-based; set-up: we used the same wild-type full-length construct to determine the hTRPV1 structure; expressed in transfected cells; host or cells: HEK293T ΔPIEZO1 cells, pIRES-EGFP plasmid
acute pain = conditions: co-administered with a calcium channel blocker; mice; cited from earlier work
hTRPV1 T550A = molecular target: T7, hTRPV1 T550A (Homo sapiens, UniProt Q8NER1, T550A); assay: whole-cell patch-clamp, SB-366791 inhibition of pH 5-induced current, T550A; format: cell-based
T7 construct: we used the same wild-type full-length construct to determine the hTRPV1 structure; expressed in transfected cells; host or cells: HEK293T ΔPIEZO1 cells, pIRES-EGFP plasmid

hTRPV1 E693A = molecular target: T8, hTRPV1 E693A (Homo sapiens, UniProt Q8NER1, E693A); assay: whole-cell patch-clamp, SB-366791 inhibition of pH 5-induced current, E693A; format: cell-based; conditions: for I / Imax: individual cells
T8 construct: we used the same wild-type full-length construct to determine the hTRPV1 structure; expressed in transfected cells; host or cells: HEK293T ΔPIEZO1 cells, pIRES-EGFP plasmid

hTRPV1 Y511A [12] = molecular target: T1, hTRPV1 Y511A; assay: whole-cell patch-clamp, SB-366791 inhibition of pH 5-induced current, Y511A; format: cell-based; conditions: for I / Imax: individual cells
[13] = molecular target: the molecule itself; assay: cryo-EM structure; apo hTRPV1 in cNW11 nanodiscs with soybean lipids or POPC:POPE:POPG (3:1:1); 150 mM NaCl, 20 mM Tris pH 8.0, 1 mM bME

## COc1cc(CNC(=O)CCCC/C=C/C(C)C)ccc1O [capsaicin]
hTRPV1 Y511A [1]
  sensitivity to capsaicin: insensitive
hTRPV1 [2]; Fig 2b, 1 µM capsaicin, -40 mV, individual cells, listed as Cap
  I (Cap), hTRPV1 peak current amplitude: 0.380 and 0.430 and 4.800 and 2.000 and 1.600
Rat TRPV1
  EC50: 527 ± 53 nM
Squirrel TRPV1
  EC50: 529 ± 32 nM
Mouse TRPV1
  EC50: 776 ± 52 nM
hTRPV1 R557A [3]
  currents induced by capsaicin: did not induce any currents
hTRPV1 E570A [4]
  currents induced by capsaicin: did not induce any currents
Rat TRPV1 Y511A
  sensitivity to capsaicin: insensitive

## COc1cccc(NC(=O)/C=C/c2ccc(Cl)cc2)c1 [SB-366791, N-(3-methoxyphenyl)−4-chlorocinnamide]
[5]
  effect on glutamatergic transmission: inhibiting glutamatergic transmission
hTRPV1 [2]; 10 µM SB-366791 co-applied with 1 µM capsaicin, -40 mV
  inhibition of capsaicin-activated hTRPV1: complete inhibition
hTRPV1 [2]; Fig 2b, 10 µM SB-366791 in the presence of 1 µM capsaicin, 10 s after SB-366791 application, individual cells, listed as SB
  I (SB), hTRPV1 peak current amplitude: 0.010 and 0.020 and 0.060 and 0.011
hTRPV1 R557A [6]
  inhibition of current induced by changes in pH: did not induce any inhibition
[7]
  effect on a panel of 47 different targets: little or no effect
hTRPV1 E570A [8]
  inhibition of current induced by changes in pH: did not induce any inhibition
Bone cancer pain
  effect on analgesia by systemic morphine: effectively potentiate the analgesic effects of systemic morphine
hTRPV1 [9]
  effect on capsaicin concentration dependence of hTRPV1-mediated calcium uptake: rightward shift
[10]
  effect on opiate-mediated behaviors: impair opiate-mediated behaviors
hTRPV1 L547R
  sensitivity to inhibition by the blocker: completely insensitive
hTRPV1 L515A
  sensitivity to inhibition by the blocker: completely insensitive
hTRPV1 L515A; SB-366791 0.0001 μM
  I / Imax: 1.151 and 1.003 and 0.775 and 1.067
hTRPV1 L515A; SB-366791 0.001 μM
  I / Imax: 0.856 and 0.881 and 0.592 and 0.984
hTRPV1 L515A; SB-366791 0.01 μM
  I / Imax: 0.762 and 0.808 and 0.507 and 0.880
hTRPV1 L515A; SB-366791 0.1 μM
  I / Imax: 0.817 and 0.939 and 0.604 and 0.943
hTRPV1 L515A; SB-366791 1 μM
  I / Imax: 0.888 and 1.233 and 0.959 and 1.206
hTRPV1 L515A; SB-366791 10 μM
  I / Imax: 0.734 and 1.125 and 1.046 and 1.211
hTRPV1 [11]; WT, pH 5, Hill fits of individual cells, read-out: SB-366791 IC50
  IC50: 5.41 nM and 45 nM and 38 nM and 6.46 nM and 26 nM and 13 nM and 15 nM
hTRPV1 [11]; WT, pH 5, individual cells
  SB-366791-resistant fraction: 0.177 and 0.291 and 0.285 and 0.295 and 0.181 and 0.106 and 0.205
hTRPV1 [11]; WT, response to reviewers, read-out: inhibition by SB-366791, IC50
  IC50: 21 nM
hTRPV1 [11]; wild-type, pH 5, +80 mV, mean ± SEM, n = 7, read-out: IC50 of SB-366791
  IC50: 21 ± 6 nM
hTRPV1 [11]; wild-type, pH 5, mean ± SEM, n = 7
  proportion of blocker-resistant current: 0.220 ± 0.027 and 0.22 ± 0.03
Acute pain
  synergistic increase of antinociceptive effect: 15 fold
hTRPV1 T550A
  sensitivity to inhibition by the blocker: completely insensitive
hTRPV1 E693A; SB-366791 0.0001 μM, pH 5, +80 mV
  I / Imax: 0.860 (2×) and 0.830 and 0.980 and 0.850 and 0.890
hTRPV1 E693A; SB-366791 0.01 μM, pH 5, +80 mV
  I / Imax: 0.820 and 0.780 and 0.880 and 0.830
hTRPV1 E693A; pH 5, +80 mV, mean ± SEM, n = 6, read-out: IC50 of SB-366791
  IC50: 100 ± 11 nM
hTRPV1 E693A; pH 5, Hill fits of individual cells, read-out: SB-366791 IC50
  IC50: 121 nM and 70 nM and 137 nM and 75 nM and 92 nM and 103 nM
hTRPV1 E693A; pH 5, individual cells
  SB-366791-resistant fraction: 0.417 and 0.362 and 0.602 and 0.396 and 0.427 and 0.420
hTRPV1 E693A; pH 5, mean ± SEM, n = 6
  fraction of blocker-insensitive current: 0.440 ± 0.034
hTRPV1 E693A; response to reviewers, read-out: inhibition by SB-366791, IC50
  IC50: 100 nM
hTRPV1 Y511A [12]; +80 mV, mean ± SEM, n = 7
  IC50: 253 ± 75 nM
hTRPV1 Y511A [12]; SB-366791 0.0001 μM, +80 mV
  I / Imax: 0.951 and 0.974 and 0.889 and 1.022
hTRPV1 Y511A [12]; SB-366791 0.001 μM, +80 mV
  I / Imax: 0.916 and 0.924 and 0.887 and 0.985
hTRPV1 Y511A [12]; SB-366791 0.01 μM, +80 mV
  I / Imax: 0.893 and 0.810 and 0.838 and 0.939
hTRPV1 Y511A [12]; SB-366791 0.1 μM, +80 mV
  I / Imax: 0.831 (2×) and 0.718 (2×)
hTRPV1 Y511A [12]; SB-366791 1 μM, +80 mV
  I / Imax: 0.638 and 0.474 and 0.443 and 0.511
hTRPV1 Y511A [12]; SB-366791 10 μM, +80 mV
  I / Imax: 0.537 and 0.399 and 0.380 and 0.562
hTRPV1 Y511A [12]; mean ± SEM, n = 7
  proportion of blocker-resistant current: 0.490 ± 0.070

B1: human TRPV1 (natural protein, UniProt Q8NER1 1-839, looked up)
chain: MKKWSSTDLGAAADPLQKDTCPDPLDGDPNSRPPPAKPQLSTAKSRTRLFGKGDSEEAFPVDCPHEEGELDSCPTITVSPVITIQRPGDGPTGARLLSQDSVAASTEKTLRLYDRRSIFEAVAQNNCQDLESLLLFLQKSKKHLTDNEFKDPETGKTCLLKAMLNLHDGQNTTIPLLLEIARQTDSLKELVNASYTDSYYKGQTALHIAIERRNMALVTLLVENGADVQAAAHGDFFKKTKGRPGFYFGELPLSLAACTNQLGIVKFLLQNSWQTADISARDSVGNTVLHALVEVADNTADNTKFVTSMYNEILMLGAKLHPTLKLEELTNKKGMTPLALAAGTGKIGVLAYILQREIQEPECRHLSRKFTEWAYGPVHSSLYDLSCIDTCEKNSVLEVIAYSSSETPNRHDMLLVEPLNRLLQDKWDRFVKRIFYFNFLVYCLYMIIFTMAAYYRPVDGLPPFKMEKTGDYFRVTGEILSVLGGVYFFFRGIQYFLQRRPSMKTLFVDSYSEMLFFLQSLFMLATVVLYFSHLKEYVASMVFSLALGWTNMLYYTRGFQQMGIYAVMIEKMILRDLCRFMFVYIVFLFGFSTAVVTLIEDGKNDSLPSESTSHRWRGPACRPPDSSYNSLYSTCLELFKFTIGMGDLEFTENYDFKAVFIILLLAYVILTYILLLNMLIALMGETVNKIAQESKNIWKLQRAITILDTEKSFLKCMRKAFRSGKLLQVGYTPDGKDDYRWCFRVDEVNWTTWNTNVGIINEDPGNCEGVKRTLSFSLRSSRVSGRHWKNFALVPLLREASARDRQSAQPEEVYLRQFSGSLKPEDAEVFKSPAASGEK
notes: human TRPV1, wild-type full-length construct; residues 1-839 by the printed numbers (models hold 115-769 or 199-754); the tags of the construct are not described; Homotetramer; Apo samples in cNW11 nanodiscs, the SB-366791 sample in GDN detergent; also called hTRPV1; hTRPV1Apo; source: HEK 293S GnTI- cells transduced with baculovirus, purified (strep resin, SEC)
[13]
  stoichiometry N: 4
